Values after ≈ are worked out from the molar mass of the structure shown. Read-outs that look alike come from different tables or passages of the source.
Experiments:
[1] = test system: Streptococcus pyogenes C203; assay: Protection of mice experimentally infected with S. pyogenes C203; assay type: in vivo
Method: Some of the derivatives of this invention have shown in vivo antimicrobial activity against experimentally-induced infections in laboratory animals. When two doses of test compound were administered to mice experimentally infected with S. pyogenes C203, the activity observed was measured as an ED50 value [effective dose in mg/kg to protect 50% of the test animals: see Warren Wick, et al., J. Bacteriol. 81, 233-235 (1961)].

[2] = test system: Staphylococcus aureus X400; assay: MIC, standard agar-dilution assay; assay type: cell-based
Method: (§1) The MIC's in Table II were determined by standard agar-dilution assays. The MIC's in Table III were obtained using a conventional broth-dilution microtiter test.

[3] = test system: Haemophilus influenzae 76; assay: MIC, standard agar-dilution assay; assay type: cell-based
Method: as §1

[4] = test system: Haemophilus influenzae C.L.; assay: MIC, standard agar-dilution assay; assay type: cell-based
Method: as §1

[5] = test system: Staphylococcus epidermidis EPI2; assay: MIC, standard agar-dilution assay; assay type: cell-based; details: Staphylococcus epidermidis, EPI2
Method: as §1

[6] = test system: Streptococcus pneumoniae Park I; assay: MIC, standard agar-dilution assay; assay type: cell-based; details: Streptococcus pneumoniae
Method: (§2) Certain of the derivatives are active against some gram-negative bacteria, such as Pasteurella species. The MIC's in Table II were determined by standard agar-dilution assays. The MIC's in Table III were obtained using a conventional broth-dilution microtiter test.

[7] = test system: Klebsiella pneumoniae X26; assay: MIC, standard agar-dilution assay; assay type: cell-based
In short: (§3)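 MICs for the two Pasteurella strains and the Mycoplasma strain were read from a broth-dilution microtiter test. The Klebsiella strain was tested on agar instead.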

Escherichia coli EC14 = assay: MIC, standard agar-dilution assay; assay type: cell-based; details: agar-dilution; Escherichia coli EC14; read-out: MIC
Method: as §2

[8] = test system: Klebsiella pneumoniae KAE; assay: MIC, standard agar-dilution assay; assay type: cell-based; details: agar-dilution; Klebsiella pneumoniae KAE; read-out: MIC
In short: (§4)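 Method depends on organism. Klebsiella pneumoniae was assayed on agar. Pasteurella spp. and Mycoplasma gallisepticum were assayed in broth microtiter dilution.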

Escherichia coli TEM = assay: MIC, standard agar-dilution assay; assay type: cell-based; details: agar-dilution; Escherichia coli TEM; read-out: MIC
In short: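 Minimum inhibitory concentrations against Escherichia coli were measured with a standard agar-dilution method. The result for each derivative is the lowest concentration that inhibits bacterial growth, given in ug/mL.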

[9] = test system: Streptococcus pyogenes C203; assay: MIC, standard agar-dilution assay; assay type: cell-based
Method: as §2

[10] = test system: Streptococcus Group D X66; assay: MIC, standard agar-dilution assay; assay type: cell-based; details: agar-dilution; Streptococcus Group D X66; read-out: MIC
Method: as §2

[11] = test system: Staphylococcus aureus X1.1; assay: MIC, standard agar-dilution assay; assay type: cell-based; details: Staphylococcus aureus, X1.1
In short: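 Minimum inhibitory concentration against Staphylococcus aureus strain X1.1 was measured with a standard agar-dilution method. The result is reported as the MIC in ug/mL, i.e. the lowest compound concentration in agar that prevents visible growth of this organism.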

[12] = test system: Streptococcus pyogenes 9960; assay: MIC, standard agar-dilution assay; assay type: cell-based
Method: as §2

[13] = test system: Staphylococcus aureus V41; assay: MIC, standard agar-dilution assay; assay type: cell-based
Method: as §2

[14] = test system: Staphylococcus aureus S13E; assay: microbe, parasite or virus in culture; assay type: cell-based
Method: as §1

[15] = test system: Staphylococcus epidermidis EPI1; assay: microbe, parasite or virus in culture; assay type: cell-based
Method: as §1

Mycoplasma gallisepticum = assay: MIC, conventional broth-dilution microtiter test; assay type: cell-based; details: Mycoplasmoides gallisepticum
In short: as §4

[16] = test system: Mycoplasma gallisepticum 41313; assay: MIC, conventional broth-dilution microtiter test; assay type: cell-based; details: Mycoplasmoides gallisepticum; broth-dilution microtiter; Mycoplasma gallisepticum 41313, Resistant strain; read-out: MIC
In short: as §4

[17] = test system: Pasteurella multocida 40G; assay: MIC, conventional broth-dilution microtiter test; assay type: cell-based; details: broth-dilution microtiter; Pasteurella multocida 40G; read-out: MIC
In short: as §4

[18] = test system: Pasteurella hemolytica 22C; assay: MIC, conventional broth-dilution microtiter test; assay type: cell-based; details: broth-dilution microtiter; Pasteurella hemolytica 22C; read-out: MIC
In short: as §4

[19] = test system: Pasteurella multocida 17E; assay: MIC, conventional broth-dilution microtiter test; assay type: cell-based; details: broth-dilution microtiter; Pasteurella multocida 17E, Bovine isolate; read-out: MIC
In short: as §4

[20] = test system: Pasteurella multocida 22A; assay: MIC, conventional broth-dilution microtiter test; assay type: cell-based; details: broth-dilution microtiter; Pasteurella multocida 22A; read-out: MIC
In short: as §4

Mycoplasma synoviae = assay: MIC, conventional broth-dilution microtiter test; assay type: cell-based; details: Mycoplasmopsis synoviae
In short: as §3

[21] = test system: Pasteurella multocida 68C; assay: MIC, conventional broth-dilution microtiter test; assay type: cell-based; details: broth-dilution microtiter; Pasteurella multocida 68C; read-out: MIC
In short: as §4

Streptococcus sp. 80 = assay: MIC, conventional broth-dilution microtiter test; assay type: cell-based
Method: as §2

[22] = test system: Pasteurella hemolytica 23C; assay: MIC, conventional broth-dilution microtiter test; assay type: cell-based; details: broth-dilution microtiter; Pasteurella hemolytica 23C; read-out: MIC
In short: as §4

[23] = test system: Mycoplasma gallisepticum 34159; assay: MIC, conventional broth-dilution microtiter test; assay type: cell-based; details: Mycoplasmoides gallisepticum; broth-dilution microtiter; Mycoplasma gallisepticum 34159, Resistant strain; read-out: MIC
In short: as §4

Staphylococcus aureus = assay: MIC, conventional broth-dilution microtiter test; assay type: cell-based
Method: as §2

Mycoplasma hyorhinis = assay: MIC, conventional broth-dilution microtiter test; assay type: cell-based; details: broth-dilution microtiter; Mycoplasma hyorhinis; read-out: MIC
In short: as §3

[24] = test system: Pasteurella multocida 60A; assay: MIC, conventional broth-dilution microtiter test; assay type: cell-based; details: broth-dilution microtiter; Pasteurella multocida 60A, Avian isolate; read-out: MIC
In short: as §4

[25] = test system: Pasteurella hemolytica 41D; assay: MIC, conventional broth-dilution microtiter test; assay type: cell-based; details: broth-dilution microtiter; Pasteurella hemolytica 41D; read-out: MIC
In short: as §4

[26] = C203, mice, oral, mg/kg × 2, doses given 1 and 4 hours postinfection, read-out: ED50 Oral

Compound	ED50 [1, 26] [mg/kg]	MIC [5] [µg/mL]	MIC [6] [µg/mL]	MIC (Escherichia coli EC14) [µg/mL]	MIC [8] [µg/mL]	MIC (Escherichia coli TEM) [µg/mL]	MIC [10] [µg/mL]	MIC [11] [µg/mL]	MIC [14] [µg/mL]	MIC (Mycoplasma gallisepticum) [µg/mL]	MIC [16] [µg/mL]	MIC [17] [µg/mL]	MIC [18] [µg/mL]	MIC [19] [µg/mL]	MIC [20] [µg/mL]	MIC [21] [µg/mL]	MIC [22] [µg/mL]	MIC [23] [µg/mL]	MIC (Mycoplasma hyorhinis) [µg/mL]	MIC [24] [µg/mL]	further results
CCC1CC(C)C(=O)C=CC(C)=CC(CSc2ccccc2)C(CC)OC(=O)CC(O)C(C)C1OC1OC(C)C(O)C(N(C)C)C1O (stereo not drawn) [Compound 42, 23-Phenylthio-20,23-dideoxy-20-dihydro-OMT]	78	1 (≈ 1.48 µM)	0.12 (≈ 0.178 µM)	> 128	> 128	> 128	0.5 (≈ 0.74 µM)	1 (≈ 1.48 µM)	1 (≈ 1.48 µM)	6.25 (≈ 9.25 µM)	25 (≈ 37 µM)	25 (≈ 37 µM)	25 (≈ 37 µM)	25 (≈ 37 µM)	25 (≈ 37 µM)	25 (≈ 37 µM)	25 (≈ 37 µM)	25 (≈ 37 µM)	25 (≈ 37 µM)	12.5 (≈ 18.5 µM)	ED50 ([1]; C203, sc, read-out: ED50 Subcutaneous): > 25 mg/kg; MIC ([2]; Staphylococcus aureus, X400): 1 µg/mL (≈ 1.48 µM); MIC ([3]; Haemophilus influenzae, 76): 16 µg/mL (≈ 23.7 µM); MIC ([4]; Haemophilus influenzae): 16 µg/mL (≈ 23.7 µM); MIC ([7]; agar-dilution, Klebsiella pneumoniae X26, read-out: MIC): 16 µg/mL (≈ 23.7 µM); MIC ([9]; Streptococcus pyogenes, C203): 1 µg/mL (≈ 1.48 µM); MIC [12]; 9960: 1 µg/mL (≈ 1.48 µM); MIC ([13]; agar-dilution, Staphylococcus aureus V41, Penicillin-resistant strain, read-out: MIC): 0.5 µg/mL (≈ 0.74 µM); MIC ([15]; agar-dilution, Staphylococcus epidermidis EPI1, read-out: MIC): 0.5 µg/mL (≈ 0.74 µM); MIC (Mycoplasma synoviae): 6.25 µg/mL (≈ 9.25 µM); MIC (Streptococcus sp. 80; broth-dilution microtiter, Streptococcus sp. 80, read-out: MIC): 1.56 µg/mL (≈ 2.31 µM); MIC (Staphylococcus aureus; broth-dilution microtiter, read-out: MIC): 1.56 µg/mL (≈ 2.31 µM); MIC [25]: 25 µg/mL (≈ 37 µM)
CCC1CC(C)C(=O)C=CC(C)=CC(COc2cccc(N(C)C)c2)C(CC)OC(=O)CC(O)C(C)C1OC1OC(C)C(O)C(N(C)C)C1O (stereo not drawn) [Compound 44, 23-O-(m-Dimethylaminophenyl)-20-deoxy-20-dihydro-OMT]	> 50	0.5 (≈ 0.711 µM)	0.5 (≈ 0.711 µM)	> 128	> 128	> 128	2 (≈ 2.85 µM)	1 (≈ 1.42 µM)	1 (≈ 1.42 µM)	3.12 (≈ 4.44 µM)	12.5 (≈ 17.8 µM)	25 (≈ 35.6 µM)	> 50	50 (≈ 71.1 µM)	50 (≈ 71.1 µM)	25 (≈ 35.6 µM)	> 50	12.5 (≈ 17.8 µM)	50 (≈ 71.1 µM)	25 (≈ 35.6 µM)	ED50 ([1]; C203, sc, mice, subcutaneous, mg/kg × 2, doses given 1 and 4 hours postinfection, read-out: ED50 Subcutaneous): > 10 mg/kg; MIC ([2]; agar-dilution, Staphylococcus aureus X400, Methicillin-resistant strain, read-out: MIC): 2 µg/mL (≈ 2.85 µM); MIC ([3]; agar-dilution, Haemophilus influenzae 76, Ampicillin-resistant strain, read-out: MIC): 16 µg/mL (≈ 22.8 µM); MIC ([4]; agar-dilution, Haemophilus influenzae C.L., Ampicillin-sensitive strain, read-out: MIC): 16 µg/mL (≈ 22.8 µM); MIC ([7]; Klebsiella pneumoniae, X26): 32 µg/mL (≈ 45.5 µM); MIC ([9]; agar-dilution, Streptococcus pyogenes C203, read-out: MIC): 4 µg/mL (≈ 5.69 µM); MIC ([12]; agar-dilution, Streptococcus 9960, read-out: MIC): 2 µg/mL (≈ 2.85 µM); MIC ([13]; Staphylococcus aureus, V41): 1 µg/mL (≈ 1.42 µM); MIC ([15]; Staphylococcus epidermidis, EPI1): 1 µg/mL (≈ 1.42 µM); MIC (Mycoplasma synoviae; broth-dilution microtiter, Mycoplasma synoviae, read-out: MIC): 12.5 µg/mL (≈ 17.8 µM); MIC (Streptococcus sp. 80; Streptococcus, SP.80): 3.12 µg/mL (≈ 4.44 µM); MIC (Staphylococcus aureus): 1.56 µg/mL (≈ 2.22 µM); MIC [25]: > 50 µg/mL
